The test system of data set [1] is Lp(a). Briefly: In-vitro Lp(a) assembly assay (cell-free, sandwich ELISA). It is filed as biochemical. The following applies: inhibition of Lp(a) formation; HepG2 and HEK293 (human Apo(a), 17 Kringle repeats) conditioned media, 37°C, 2 hours; 4-parameter curve. As for the experimental part:
The capability of the compounds in the examples inhibiting the formation of Lp(a) particles in vitro was evaluated through cell-free assembly assay. After incubation at 37°C with 5% CO2 for 96 h, conditioned media (supplemented with 10% FBS, 20 mM HEPES, and 1 × penicillin/streptomycin DMEM) was collected from confluent wild-type HepG2 cells (source of endogenously expressed ApoB) and an HEK293 stable cell line expressing human Apo(a) protein containing 17 Kringle repeats (selected on 1 ug/ml puromycin). In-vitro assembly assay was performed by combining equal parts of HepG2 and HEK293 conditioned media with compounds under test added in a dilution series (final concentration being 0.03-1000 nM). A reaction was incubated at 37°C for 2 hours, and terminated by adding 6-aminocaproic acid (EACA) to a final concentration of 150 mM. Sandwich ELISA was used to detect Lp(a) using an anti-Apo(a) capture antibody (ab242565) and an HRP-conjugated anti-ApoB detection antibody (ab27622). ELISA was performed using TMB staining, and terminated with 1N sulfuric acid, and signals were read at 450 nm on an Envision 2104 plate reader. By setting an assembly reaction without inhibitors to 0% inhibition and an assembly reaction with the minimum amount of HepG2 conditioned medium (50-fold dilution) to 100% inhibition, the % inhibition of Lp(a) formed under each test condition was determined. Table 1 IC90 values of sulfonamide compounds
Background: In an ELISA, binding on a coated surface is turned into a signal by an enzyme label.

A short description of data set [2]: in vivo. The following applies: cynomolgus monkey.
Description: (§1) Cynomolgus monkey: male, 3-6 kg, purchased from Guangzhou Huazhen biotechnology Co., Ltd. and Hainan Jingang Biotech Co., Ltd.
Data set [3] is described as follows: Pharmacokinetic experiment for monkeys. The following applies: Cynomolgus monkey, 5 mg/kg, p.o.
Description: as §1

As usually defined, the IC90 is the point of the concentration-response curve where the effect stands at 90%. Low values mean greater potency, high ones weaker potency. Broadly, the AUC(0-t) is exposure summed from dosing to a finite time, without extrapolation to infinity. The half-life is the time in which the quantity being followed falls by half. The low end stands for rapid decline, the high end for slow decline. One may read the Cmax as the peak of the concentration-time curve.

On to `O=C(O)[C@@H](Cc1cccc(CN(Cc2cccc(C[C@H](C(=O)O)[C@H]3CCNC3)c2)S(=O)(=O)c2cccc(C[C@H](C(=O)O)[C@H]3CCNC3)c2)c1)[C@H]1CCNC1` [Compound 1], for which it took 49.9 nM to reach the 90% level in data set [1] (IC90). In data set [2] (iv, 0.5 mg/kg), this molecule showed an AUC(0-t) of 41000 ng·h/mL and a half-life of 21 h. Taken in the same sequence, the figures for `O=C(O)[C@@H](Cc1cccc(CN(CCc2ccccc2C[C@H](C(=O)O)[C@H]2CCNC2)S(=O)(=O)c2cccc(C[C@H](C(=O)O)[C@H]3CCNC3)c2)c1)[C@H]1CCNC1` [Compound 3] were 61 nM, 33300 ng·h/mL and 31.6 h. For the molecule `O=C(O)C(Cc1cccc(CN(Cc2ccccc2CC(C(=O)O)C2CCNC2)S(=O)(=O)c2cccc(CC(C(=O)O)C3CCNC3)c2)c1)C1CCNC1` [Compound 23, (S)-3-(3-(((3-(S)-2-carboxyl-2-((R)-pyrrolid-3-yl)ethyl)-N-(2-((S)2-carboxyl-2-(R)pyrrolid-3-yl)ethyl)benzyl)phenyl)sulfonamido)methyl)phenyl)-2-((R)-pyrrolid-3-yl)propanoic acid], in data set [1], it took 76.2 nM to reach the 90% level (IC90). As to `O=C(O)[C@@H](Cc1cccc(CCN(CCc2ccccc2C[C@H](C(=O)O)[C@H]2CCNC2)S(=O)(=O)c2cccc(C[C@H](C(=O)O)[C@H]3CCNC3)c2)c1)[C@H]1CCNC1` [Compound 19], it took 40.9 nM to reach the 90% level in data set [1] (IC90).

The molecule `O=C(O)C(Cc1cccc(S(=O)(=O)N(Cc2c(F)ccc(CC(C(=O)O)C3CCNC3)c2F)Cc2c(F)ccc(CC(C(=O)O)C3CCNC3)c2F)c1)C1CCNC1` [Compound 31, (2S,2'S)-3,3'-((3-((S)-2-carboxyl-2-(R)-pyrrolid-3-yl)ethyl)phenyl)sulfonyl)azadiyl)bis(methylenyl))bis(2,6-difluoro-3,1-phenylenyl)bis(2-(R)-pyrrolid-3-yl)propanoic acid)] came in with an IC90 in data set [1] of 21.1 nM.

With `O=C(O)[C@@H](Cc1cccc(S(=O)(=O)N(Cc2ccc(F)c(C[C@H](C(=O)O)[C@H]3CCNC3)c2)Cc2cc(C[C@H](C(=O)O)[C@H]3CCNC3)ccc2F)c1)[C@H]1CCNC1` [Compound 14], the IC90 in data set [1] was found to be 24.4 nM. Regarding `O=C(O)C(Cc1ccc(F)c(CN(Cc2cc(CC(C(=O)O)C3CCNC3)ccc2F)S(=O)(=O)c2ccc(F)c(CC(C(=O)O)C3CCNC3)c2)c1)C1CCNC1` [Compound 34, (2S,2'S)-3,3'-(((((3-((S)-2-carboxyl-2-((R)-pyrrolid-3-yl)ethyl)-4-fluorophenyl)sulfonyl)azadiyl)bis(methylenyl))bis(6-fluoro-3,1-phenylenyl))bis(2-((R)-pyrrolid-3-yl)propanoic acid)], the IC90 in data set [1] was 17.7 nM.

Take `O=C(O)[C@@H](Cc1cccc(S(=O)(=O)N(Cc2ccc(F)c(C[C@H](C(=O)O)[C@H]3CCNC3)c2)Cc2ccc(F)c(C[C@H](C(=O)O)[C@H]3CCNC3)c2)c1)[C@H]1CCNC1` [Compound 9]: in data set [1], the IC90 was found to be 45.8 nM. Besides, the F in data set [3] amounted to 7.49%. Also, in data set [2] (po, 5 mg/kg), the AUC(0-t) was determined as 22100 ng·h/mL and the concentration peaked (Cmax) at 1690 ng/mL.
